Experimental data: publication PMC3121759 (PLoS ONE, 2011)

Key:
[1] = system: β-Adrenergic (Non-selective); assay: Radioligand binding, [3H]DHA; settings: duplicate
Protocol: (§1) Table S1. Inhibition effect of CHIBA-3007 (1 µM) on radioligand binding to various receptors
(§2) Test substance concentration: 1 µM, Positive substance concentration : 10 µM
(§3) Data are expressed as the mean values of duplicate samples.
(§4) The % inhibition was calculated from “100 – binding ratio”.
(§5) Binding ratio: [(B - N) / (B0 - N)] × 100 (%) B: Bound radioactivity in the presence of test substance and positive substance (individual value), B0: Total bound radioactivity in the absence of test substance and positive substance (mean value), N: Non-specific bound radioactivity (mean value)

Sigma (Non-selective) = assay: Radioligand binding, [3H]DTG; settings: duplicate
Protocol: as §1, §2, §3, §4, §5

Histamine H3 = assay: Radioligand binding, [3H]N-methyl histamine; settings: Histamine H3, [3H]N-methyl histamine, duplicate
Protocol: as §1, §2, §3, §4, §5

Serotonin 5-HT1A = assay: Radioligand binding, [3H]8-OH DPAT; settings: duplicate
Protocol: as §1, §2, §3, §4, §5

[2] = 28 standard target binding profile; settings: 1 µM
Protocol: as §1, §2, §3, §4, §5

Nicotinic Ni = assay: Radioligand binding, [3H]Nicotine; settings: duplicate
Protocol: as §1, §2, §3, §4, §5

GlyT-1 [3] = target: T1, GlyT-1 (Rattus norvegicus, UniProt P28572); assay: Inhibition of [14C]glycine uptake in rat brain membranes; type: biochemical
T1 construct: the tissues of whole brains or each specific brain region were homogenized; from tissue; host or cells: rat brain (whole brain or dissected regions; male Crl:CD (SD) rats)
T1 sequence (P28572 1-638): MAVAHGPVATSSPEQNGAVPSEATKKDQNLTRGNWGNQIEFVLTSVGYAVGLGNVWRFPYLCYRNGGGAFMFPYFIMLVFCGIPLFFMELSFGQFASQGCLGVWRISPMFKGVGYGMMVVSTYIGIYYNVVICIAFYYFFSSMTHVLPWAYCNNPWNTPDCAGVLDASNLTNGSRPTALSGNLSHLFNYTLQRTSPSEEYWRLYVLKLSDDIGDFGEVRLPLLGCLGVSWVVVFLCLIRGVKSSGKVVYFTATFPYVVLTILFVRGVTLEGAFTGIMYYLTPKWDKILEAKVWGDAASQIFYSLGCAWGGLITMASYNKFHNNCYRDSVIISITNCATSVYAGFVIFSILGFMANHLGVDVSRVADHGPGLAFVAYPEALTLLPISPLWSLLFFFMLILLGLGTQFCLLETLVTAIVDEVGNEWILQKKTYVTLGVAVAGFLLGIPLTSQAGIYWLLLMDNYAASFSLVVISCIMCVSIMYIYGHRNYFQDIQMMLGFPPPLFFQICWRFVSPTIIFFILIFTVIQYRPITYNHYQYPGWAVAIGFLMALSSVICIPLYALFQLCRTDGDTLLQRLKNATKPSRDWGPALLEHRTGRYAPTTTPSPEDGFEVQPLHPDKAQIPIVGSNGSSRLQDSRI
Protocol: The homogenate was centrifuged at 1,000 g for 10 min to remove nuclei and debris, and then the supernatant was centrifuged again at 20,000 g for 20 min (synaptosomal P2 fraction). The pellet was washed and re-suspended in ice-cold 0.32 M sucrose, buffered with 10 mM HEPES (pH 7.4) and centrifuged again at 20,000 g for 20 min (washed P2 fraction). The pellet was re-suspended in 10 volumes of assay buffer with the following composition: 10 mM HEPES buffer (pH 7.4) containing 140 mM NaCl, 5.5 mM KCl, 1.8 mM CaCl2, 0.8 mM MgSO4, 5 mM glucose and 5 mM L-alanine (HB). The protein concentrations were measured by using a DC protein assay kit (Bio-Rad Laboratories Inc., Tokyo, Japan).
Non-specific uptake was estimated in the presence of 30 µM SSR504734. […] The filters were washed by buffer, and the radioactivity trapped by the filters was determined using a liquid scintillation counter as described above.
(§6) The data are shown as the mean ± standard error of the mean (S.E.M.). The dissociation constant (Kd) and maximal binding (Bmax) values from saturation binding and the IC50 values from binding displacement by each drug were determined using the program GraphPad Prism (GraphPad Software, San Diego, CA). […] Correlation was analyzed by Pearson's Correlation Coefficient (PASW Statistics 19, Tokyo, Japan). Significance was set at p<0.05.

[4] = system: Glutamate (Non-selective); assay: Radioligand binding, [3H]Glutamic acid; settings: duplicate
Protocol: as §1, §2, §3, §4, §5

GlyT-1 [5] = target: T1, GlyT-1; assay: Drug inhibition of [3H]CHIBA-3007 binding to rat brain membranes; settings: [3H]CHIBA-3007 (1 nM), 120 min room temperature, mean ± S.E.M., n=3
Protocol: The supernatant was discarded and the pellet was re-suspended, homogenized and centrifuged as above. The membrane pellet was washed and re-suspended in ice-cold HEPES buffer and was then centrifuged three times. The final pellet was re-suspended in 15 volumes of the buffer (120 mM NaCl, 2 mM KCl, 1 mM CaCl2, 1 mM MgCl2 10 mM HEPES, pH 7.5 at room temperature).
The binding reaction was terminated by rapid vacuum filtration onto Whatman GF/B glass filters pretreated with 0.5% polyethyleneimine (Sigma-Aldrich Co.) using a 24-channel cell harvester (Brandell, Gaithersburg, MD). The filters were washed with 5 mL of ice-cold assay buffer 3 times, and placed in vials with 4 mL scintillation cocktail. The radioactivity trapped by the filters was determined using a liquid scintillation counter (Beckman LS-6500; Beckman Coulter K.K., Tokyo, Japan).
as §6

GABA -A (Agonist site) = assay: Radioligand binding, [3H]Muscimol; settings: duplicate
Protocol: as §1, §2, §3, §4, §5

Adenosine A1 = assay: Radioligand binding, [3H]DPCPX; settings: Adenosine A1, [3H]DPCPX, duplicate
Protocol: as §1, §2, §3, §4, §5

Glutamate (AMPA) = assay: Radioligand binding, [3H]AMPA; settings: duplicate
Protocol: as §1, §2, §3, §4, §5

Muscarinic M1 = assay: Radioligand binding, [3H]Pirenzepine; settings: Muscarinic M1, [3H]Pirenzepine, duplicate
Protocol: as §1, §2, §3, §4, §5

Dopamine D1 = assay: Radioligand binding, [3H]SCH23390; settings: Dopamine D1, [3H]SCH23390, 1 µM, duplicate
Protocol: as §1, §2, §3, §4, §5

GABA- A (BZ central) = assay: Radioligand binding, [3H]Flunitrazepam; settings: duplicate
Protocol: as §1, §2, §3, §4, §5

Adenosine A2 = assay: Radioligand binding, [3H]CGS21680; settings: Adenosine A2, [3H]CGS21680, 1 µM, duplicate
Protocol: as §1, §2, §3, §4, §5

[6] = system: Glutamate (NMDA glycine site); assay: Radioligand binding, [3H]MDL105519; settings: [3H]MDL105519, 1 µM, duplicate
Protocol: as §1, §2, §3, §4, §5

Histamine H1 (Central) = assay: Radioligand binding, [3H]Pyrilamine; settings: duplicate
Protocol: as §1, §2, §3, §4, §5

Muscarinic M2 = assay: Radioligand binding, [3H]AF-DX-384; settings: Muscarinic M2, [3H]AF-DX-384, 1 µM, duplicate
Protocol: as §1, §2, §3, §4, §5

GABA -B = assay: Radioligand binding, [3H]GABA; settings: duplicate
Protocol: as §1, §2, §3, §4, §5

Glutamate (Kainate) = assay: Radioligand binding, [3H]Kainic acid; settings: duplicate
Protocol: as §1, §2, §3, §4, §5

Serotonin 5-HT2A = assay: Radioligand binding, [3H]Ketanserin; settings: duplicate
Protocol: as §1, §2, §3, §4, §5

[7] = system: Glutamate (NMDA agonist site); assay: Radioligand binding, [3H]CGP-39653; settings: [3H]CGP-39653, 1 µM, duplicate
Protocol: as §1, §2, §3, §4, §5

Opiate (Non-selective) = assay: Radioligand binding, [3H]Naloxone; settings: duplicate
Protocol: as §1, §2, §3, §4, §5

[8] = system: α1-Adrenergic (Non-selective); assay: Radioligand binding, [3H]Prazosin; settings: duplicate
Protocol: as §1, §2, §3, §4, §5

Dopamine D2 = assay: Radioligand binding, [3H]Spiperone; settings: Dopamine D2, [3H]Spiperone, duplicate
Protocol: as §1, §2, §3, §4, §5

Histamine H2 = assay: Radioligand binding, [3H]Cimetidine; settings: Histamine H2, [3H]Cimetidine, duplicate
Protocol: as §1, §2, §3, §4, §5

[9] = system: Glycine (Strychnine sensitive); assay: Radioligand binding, [3H]Strychnine; settings: duplicate
Protocol: as §1, §2, §3, §4, §5

Serotonin 5-HT3 (Human) = assay: Radioligand binding, [3H]GR65630; settings: [3H]GR65630, 1 µM, duplicate
Protocol: as §1, §2, §3, §4, §5

[10] = system: Glutamate (NMDA phencyclidine site); assay: Radioligand binding, [3H]MK-801; settings: [3H]MK-801, 1 µM, duplicate
Protocol: as §1, §2, §3, §4, §5

[11] = system: α2-Adrenergic (Non-selective); assay: Radioligand binding, [3H]RX821002; settings: [3H]RX821002, 1 µM, duplicate
Protocol: as §1, §2, §3, §4, §5

CN1CCCC[C@@H]1[C@@H](NC(=O)c1nccc(C(F)(F)F)c1Cl)c1ccsc1 [CHIBA-3007, 3-Chloro-N-((S)-((R)-1-methylpiperidin-2-yl)(thiophen-3-yl)methyl)-4-(trifluoromethyl)picolinamide]
% Inhibition (1 µM) [1]: 8.39%
% Inhibition (1 µM) (Sigma (Non-selective)): 24.20%
% Inhibition (1 µM) (Histamine H3): 0.00%
% Inhibition (1 µM) (Serotonin 5-HT1A): 35.22%
Inhibition in 28 standard target binding profile [2]: lower than 50%
% Inhibition (1 µM) (Nicotinic Ni): 2.10%
IC50 (GlyT-1 [3]): 0.0214 ± 0.0084 µM
% Inhibition (1 µM) [4]: 1.91%
Ki (GlyT-1 [5]): 0.0028 ± 0.00017 µM
% Inhibition (1 µM) (GABA -A (Agonist site)): 0.20%
% Inhibition (1 µM) (Adenosine A1): 2.12%
% Inhibition (1 µM) (Glutamate (AMPA)): 3.27%
% Inhibition (1 µM) (Muscarinic M1): 8.35%
% Inhibition (1 µM) (Dopamine D1): 2.32%
% Inhibition (1 µM) (GABA- A (BZ central)): 2.78%
% Inhibition (1 µM) (Adenosine A2): 5.86%
% Inhibition (1 µM) [6]: 4.02%
% Inhibition (1 µM) (Histamine H1 (Central)): 1.83%
% Inhibition (1 µM) (Muscarinic M2): 16.31%
% Inhibition (1 µM) (GABA -B): 8.19%
% Inhibition (1 µM) (Glutamate (Kainate)): 1.50%
% Inhibition (1 µM) (Serotonin 5-HT2A): 30.56%
% Inhibition (1 µM) [7]: 8.17%
% Inhibition (1 µM) (Opiate (Non-selective)): 43.44%
% Inhibition (1 µM) [8]: 1.13%
% Inhibition (1 µM) (Dopamine D2): 1.00%
% Inhibition (1 µM) (Histamine H2): 3.80%
% Inhibition (1 µM) [9]: 0.00%
% Inhibition (1 µM) (Serotonin 5-HT3 (Human)): 7.36%
% Inhibition (1 µM) [10]: 3.80%
% Inhibition (1 µM) [11]: 20.98%
